Laboratory results: patent US8999940B2 (Ipsen Pharma S.A.S., priority 2008, dated 2015)
Where no end group is shown, it is not given here. [ ]: non-standard residue; d: D form. The star is where a group is joined. Desaminotyrosyl = O=C(CCc1ccc(O)cc1)*; Hyp = O=C(O)[C@@H]1C[C@@H](O)CN1; Ac6c = NC1(C(=O)O)CCCCC1

Legend:
[1] = target: T1, human recombinant GIP receptor (Homo sapiens, UniProt P48546); assay: In vitro hGIP receptor binding assay
T1 construct: expressed in transfected cells; host or cells: CHO-K1 clonal cells (membrane preparation)
T1 sequence (P48546 22-466): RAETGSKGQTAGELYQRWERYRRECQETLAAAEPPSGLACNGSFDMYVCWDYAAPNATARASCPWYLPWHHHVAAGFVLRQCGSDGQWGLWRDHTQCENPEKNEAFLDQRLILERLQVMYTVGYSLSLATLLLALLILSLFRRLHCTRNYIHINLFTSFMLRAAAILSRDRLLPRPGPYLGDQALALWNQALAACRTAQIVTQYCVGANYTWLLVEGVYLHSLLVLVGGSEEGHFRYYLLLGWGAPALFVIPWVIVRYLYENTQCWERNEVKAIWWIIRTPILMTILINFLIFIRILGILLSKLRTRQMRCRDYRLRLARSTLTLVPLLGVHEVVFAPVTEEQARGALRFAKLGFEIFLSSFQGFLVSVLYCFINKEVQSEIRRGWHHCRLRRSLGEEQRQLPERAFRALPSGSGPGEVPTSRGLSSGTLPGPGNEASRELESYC
Method: A. In Vitro hGIP Receptor Binding Assay […] The incubations were terminated by rapid filtration through GF/C filters (pre-soaked in 0.5% polyethylenimine) using a Brandel filtration manifold. Each tube and filter were then washed three times with 5-ml aliquots of ice-cold buffer.

[2] = Human plasma half-life assay; assay type: in vitro ADME; settings: 37° C., LC-MS, read-out: Human Plasma T½ (converted)
Method: (§1) B. Human and Rat Plasma Half-Life Assay
(§2) 50 μl was removed at various times, like at 0, 1, 2, 3, 4, 8, 24, 32, 48, 56, 72 hours, mixed with 5 μl formic acid and 150 μL acetonitrile in a microcentrifuge tube, vertexed, and centrifuged for 10 minutes at 10 K rpm. The supernatant was transferred to an injection vial and analyzed by LC-MS. The LC-MS system consisted of an API4000 mass spectrometer with an ESI probe. Positive ion mode and full scan detection were used. HPLC separation was carried out on a Luna 3μ. C8 (2), 2×30 mm column with a gradient from 90% A to 90% B in 10 minutes at a flow rate of 0.3 ml/min. Buffer A was 1% formic acid in water and buffer B was 1% formic acid acetonitrile.

[3] = Rat plasma half-life assay; assay type: in vitro ADME; settings: 37° C., LC-MS, read-out: Rat Plasma T½ (converted)
Method: as §1, §2

Row | Compound | Ki [1] [nM] | half-life at 0.1 mg/ml [2] [h] | half-life at 0.1 mg/ml [3] [h]
1 | CC[C@H](C)[C@H](NC(=O)[C@H](CCCCN)NC(=O)[C@H](CC(=O)O)NC(=O)[C@H](CCSC)NC(=O)[C@H](C)NC(=O)[C@@H](NC(=O)C1(NC(=O)[C@H](Cc2ccc(O)cc2)NC(=O)[C@H](CC(=O)O)NC(=O)[C@H](CO)NC(=O)[C@@H](NC(=O)[C@H](Cc2ccccc2)NC(=O)[C@@H](NC(=O)CNC(=O)[C@H](CCC(=O)O)NC(=O)C(C)(C)NC(=O)[C@@H](N)Cc2ccc(O)c([N+](=O)[O-])c2)[C@@H](C)O)[C@@H](C)CC)CCCC1)[C@@H](C)CC)C(=O)N[C@@H](Cc1c[nH]cn1)C(=O)N[C@@H](CCC(N)=O)C(=O)N[C@@H](CCC(N)=O)C(=O)N[C@@H](CC(=O)O)C(=O)N[C@@H](Cc1ccccc1)C(=O)N[C@H](C(=O)N[C@@H](CC(N)=O)C(=O)N[C@@H](Cc1c[nH]c2ccccc12)C(=O)N[C@@H](CC(C)C)C(=O)N[C@@H](CC(C)C)C(=O)N[C@@H](C)C(=O)N[C@@H](CCC(N)=O)C(=O)N[C@@H](CCCCN)C(=O)NCC(=O)N[C@@H](CCCCN)C(=O)N[C@@H](CCCCN)C(=O)N[C@@H](CC(N)=O)C(=O)N[C@@H](CC(=O)O)C(=O)N[C@@H](Cc1c[nH]c2ccccc12)C(=O)N[C@@H](CCCCN)C(=O)N[C@@H](Cc1c[nH]cn1)C(=O)N[C@@H](CC(N)=O)C(=O)N[C@H](C(=O)NC1(C(=O)N[C@@H](CCC(N)=O)C(=O)O)CCCC1)[C@@H](C)CC)C(C)C [Example 36, (3NO2-Tyr^1, Aib^2, A5c^11, 41)hGIP(1-42)-OH] | 11.2 | > 72 | 11.7
2 | CCCC[C@H](NC(=O)[C@H](C)NC(=O)[C@@H](NC(=O)C1(NC(=O)[C@H](Cc2ccc(O)cc2)NC(=O)[C@H](CC(=O)O)NC(=O)[C@H](CO)NC(=O)[C@@H](NC(=O)[C@H](Cc2ccccc2)NC(=O)[C@@H](NC(=O)CNC(=O)[C@H](CCC(=O)O)NC(=O)C(C)(C)NC(=O)[C@@H](N)CCc2ccc(O)cc2)[C@@H](C)O)[C@@H](C)CC)CCCC1)[C@@H](C)CC)C(=O)N[C@@H](CC(=O)O)C(=O)N[C@@H](CCCCN)C(=O)N[C@H](C(=O)N[C@@H](Cc1c[nH]cn1)C(=O)N[C@@H](CCC(N)=O)C(=O)N[C@@H](CCC(N)=O)C(=O)N[C@@H](CC(=O)O)C(=O)N[C@@H](Cc1ccccc1)C(=O)N[C@H](C(=O)N[C@@H](CC(N)=O)C(=O)N[C@@H](Cc1c[nH]c2ccccc12)C(=O)N[C@@H](CC(C)C)C(=O)N[C@@H](CC(C)C)C(=O)N[C@@H](C)C(=O)N[C@@H](CCC(N)=O)C(=O)N[C@@H](CCCCN)C(=O)NCC(=O)N[C@@H](CCCCN)C(=O)N[C@@H](CCCCN)C(=O)N[C@@H](CC(N)=O)C(=O)N[C@@H](CC(=O)O)C(=O)N[C@@H](Cc1c[nH]c2ccccc12)C(=O)N[C@@H](CCCCN)C(=O)N[C@@H](Cc1c[nH]cn1)C(=O)N[C@@H](CC(N)=O)C(=O)N[C@H](C(=O)N[C@H](C(=O)N[C@@H](CCC(N)=O)C(=O)O)[C@@H](C)O)[C@@H](C)CC)C(C)C)[C@@H](C)CC [Example 19, (hTyr^1, Aib^2, A5c^11, Nle^14)hGIP(1-42)-OH] | 77.3 | > 72 | 15.2
3 | Desaminotyrosyl-A[Hyp]GTF[Ac6c]SDYSIAMDKIHQQDFVNWLLAQKGKKNDWKHNITQ [Example 7, (4Hppa^1, 4Hyp^3, A6c^7)hGIP(1-42)-OH] | 251 | 38.5 | 6.8
